Test results: ChEMBL document CHEMBL1152385, “Cyanoguanidine-based lactam derivatives as a novel class of orally bioavailable factor Xa inhibitors” (Bioorg Med Chem Lett, 2009)
Activity calls are given as the source filed them. The calls are words filed in the database; no cut-off is given here.

Assays:
Rattus norvegicus [1] = test: Ex vivo anticoagulant activity in pentobarbital-anesthetized Sprague-Dawley rat assessed as prolongation of prothrombin time administered as initial bolus iv dosing followed by sustaining iv infusion; format: functional, organism-based
Rattus norvegicus [2] = test: Antithrombotic activity in pentobarbital-anesthetized Sprague-Dawley rat assessed as improved blood flow in arterial thrombosis administered as initial bolus iv dosing plus sustaining iv infusion; format: functional, organism-based
Rattus norvegicus [3] = test: Antithrombotic activity in pentobarbital-anesthetized Sprague-Dawley rat assessed reduction in occlusion of arteries administered as initial 20 mg/kg, iv bolus dose followed by sustaining 20 mg/kg/h, iv dosing; format: functional, organism-based
[4] = biological target: Adenosine receptor A1 (Homo sapiens) (UniProt P30542); test: Inhibition of human adenosine A1 receptor at 10 uM
[5] = biological target: Adrenergic receptor alpha-1 (Rattus norvegicus) (UniProt P15823+P23944+P43140); test: Inhibition of rat adrenergic alpha1 receptor at 10 uM
[6] = biological target: Adrenergic receptor alpha-2 (Rattus norvegicus) (UniProt P22086+P19328+P22909); test: Inhibition of rat adrenergic alpha2 receptor at 10 uM
[7] = biological target: Beta-2 adrenergic receptor (Homo sapiens) (UniProt P07550); test: Inhibition of human adrenergic beta2 receptor at 10 uM
[8] = biological target: Beta-1 adrenergic receptor (Homo sapiens) (UniProt P08588); test: Inhibition of human adrenergic beta-1 receptor at 10 uM
Rattus norvegicus [9] = species on record: Rattus norvegicus; test: Inhibition of rat central-type benzodiazepine receptor at 10 uM
[10] = biological target: Cholecystokinin receptor type A (Homo sapiens) (UniProt P32238); test: Inhibition of human CCK1 receptor at 10 uM
[11] = biological target: D(1A) dopamine receptor (Homo sapiens) (UniProt P21728); test: Inhibition of human dopamine D1 receptor at 10 uM
[12] = biological target: D(2) dopamine receptor (Homo sapiens) (UniProt P14416); test: Inhibition of human dopamine D2S receptor at 10 uM
Rattus norvegicus [13] = species on record: Rattus norvegicus; test: Inhibition of rat AMPA receptor at 10 uM
Rattus norvegicus [14] = species on record: Rattus norvegicus; test: Inhibition of rat kainate receptor at 10 uM
[15] = biological target: Glutamate NMDA receptor (Rattus norvegicus) (UniProt P35439+Q00959+Q00960+Q00961+Q62645+Q8VHN2+Q9R1M7); test: Inhibition of rat NMDA receptor at 10 uM; format: protein-complex assay
[16] = biological target: Histamine H1 receptor (Cavia porcellus) (UniProt P31389); test: Inhibition of guinea pig histamine H1 receptor at 10 uM
[17] = biological target: Histamine H2 receptor (Cavia porcellus) (UniProt P47747); test: Inhibition of guinea pig histamine H2 receptor at 10 uM
[18] = biological target: Muscarinic acetylcholine receptor (Rattus norvegicus) (UniProt P08482+P08483+P08485+P08911+P10980); test: Inhibition of rat muscarinic receptor at 10 uM
Rattus norvegicus [19] = species on record: Rattus norvegicus; test: Inhibition of rat opioid receptor at 10 uM
Rattus norvegicus [20] = species on record: Rattus norvegicus; test: Inhibition of rat PCP receptor at 10 uM
Mus musculus = species on record: Mus musculus; test: Inhibition of mouse rolipram binding site at 10 uM
Rattus norvegicus [21] = species on record: Rattus norvegicus; test: Inhibition of rat 5-HT receptor at 10 uM
[22] = biological target: 5-hydroxytryptamine receptor 1A (Homo sapiens) (UniProt P08908); test: Inhibition of human 5HT1A receptor at 10 uM
[23] = biological target: 5-hydroxytryptamine receptor 2B (Homo sapiens) (UniProt P41595); test: Inhibition of human 5HT2B receptor at 10 uM
[24] = Inhibition of sst receptor at 10 uM
[25] = biological target: Glucocorticoid receptor (Homo sapiens) (UniProt P04150); test: Inhibition of human glucocorticoid receptor at 10 uM
[26] = biological target: Progesterone receptor (Homo sapiens) (UniProt P06401); test: Inhibition of human progesterone receptor at 10 uM
[27] = biological target: Estrogen receptor (Homo sapiens) (UniProt P03372); test: Inhibition of human ERalpha receptor at 10 uM
Rattus norvegicus [28] = species on record: Rattus norvegicus; test: Inhibition of rat sodium channel site 2 at 10 uM
Rattus norvegicus [29] = species on record: Rattus norvegicus; test: Inhibition of rat chloride channel at 10 uM
[30] = biological target: Sodium-dependent noradrenaline transporter (Homo sapiens) (UniProt P23975); test: Inhibition of human norepinephrine transporter at 10 uM
[31] = biological target: Sodium-dependent dopamine transporter (Rattus norvegicus) (UniProt P23977); test: Inhibition of rat dopamine transporter at 10 uM
Rattus norvegicus [32] = species on record: Rattus norvegicus; test: Inhibition of rat GABA transporter at 10 uM
Rattus norvegicus [33] = species on record: Rattus norvegicus; test: Inhibition of rat choline transporter at 10 uM
[34] = Inhibition of trypsin
[35] = Inhibition of tryptase
[36] = Inhibition of sodium channel
cells = details: Homo sapiens, TC5
Rattus norvegicus [37] = species on record: Rattus norvegicus; test: animal or person; details: Sprague-Dawley, iv
Rattus norvegicus [38] = species on record: Rattus norvegicus; test: animal or person; details: Sprague-Dawley, Vena cava, iv

Sequence of Adenosine receptor A1 (Homo sapiens) (P30542 whole entry): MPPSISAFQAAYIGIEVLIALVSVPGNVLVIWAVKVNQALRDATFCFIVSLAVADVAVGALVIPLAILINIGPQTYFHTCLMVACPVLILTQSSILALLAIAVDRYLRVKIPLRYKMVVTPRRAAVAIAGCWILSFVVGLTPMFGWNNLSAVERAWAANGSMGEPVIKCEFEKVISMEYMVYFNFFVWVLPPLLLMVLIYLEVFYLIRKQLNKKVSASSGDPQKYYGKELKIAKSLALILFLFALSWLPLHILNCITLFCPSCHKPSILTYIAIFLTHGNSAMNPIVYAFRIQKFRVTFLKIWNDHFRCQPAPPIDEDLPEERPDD
Sequence of Sodium-dependent dopamine transporter (Rattus norvegicus) (P23977 whole entry): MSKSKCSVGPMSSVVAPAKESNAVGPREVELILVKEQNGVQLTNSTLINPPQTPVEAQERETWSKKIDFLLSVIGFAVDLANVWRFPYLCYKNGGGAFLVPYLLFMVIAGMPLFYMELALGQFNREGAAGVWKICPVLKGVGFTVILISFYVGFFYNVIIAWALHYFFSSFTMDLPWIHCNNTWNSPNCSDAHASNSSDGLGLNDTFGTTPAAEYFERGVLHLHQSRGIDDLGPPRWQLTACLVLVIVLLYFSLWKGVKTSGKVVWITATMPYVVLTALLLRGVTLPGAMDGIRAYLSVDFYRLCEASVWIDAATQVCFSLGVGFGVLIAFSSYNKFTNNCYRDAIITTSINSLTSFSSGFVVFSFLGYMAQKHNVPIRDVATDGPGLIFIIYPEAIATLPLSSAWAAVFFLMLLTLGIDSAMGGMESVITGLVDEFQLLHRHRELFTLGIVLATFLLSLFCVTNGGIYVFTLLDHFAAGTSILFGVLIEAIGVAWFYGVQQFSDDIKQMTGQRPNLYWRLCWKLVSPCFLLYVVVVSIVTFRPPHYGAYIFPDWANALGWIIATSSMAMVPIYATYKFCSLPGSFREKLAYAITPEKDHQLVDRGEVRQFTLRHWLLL
Sequence of Sodium-dependent noradrenaline transporter (Homo sapiens) (P23975 whole entry): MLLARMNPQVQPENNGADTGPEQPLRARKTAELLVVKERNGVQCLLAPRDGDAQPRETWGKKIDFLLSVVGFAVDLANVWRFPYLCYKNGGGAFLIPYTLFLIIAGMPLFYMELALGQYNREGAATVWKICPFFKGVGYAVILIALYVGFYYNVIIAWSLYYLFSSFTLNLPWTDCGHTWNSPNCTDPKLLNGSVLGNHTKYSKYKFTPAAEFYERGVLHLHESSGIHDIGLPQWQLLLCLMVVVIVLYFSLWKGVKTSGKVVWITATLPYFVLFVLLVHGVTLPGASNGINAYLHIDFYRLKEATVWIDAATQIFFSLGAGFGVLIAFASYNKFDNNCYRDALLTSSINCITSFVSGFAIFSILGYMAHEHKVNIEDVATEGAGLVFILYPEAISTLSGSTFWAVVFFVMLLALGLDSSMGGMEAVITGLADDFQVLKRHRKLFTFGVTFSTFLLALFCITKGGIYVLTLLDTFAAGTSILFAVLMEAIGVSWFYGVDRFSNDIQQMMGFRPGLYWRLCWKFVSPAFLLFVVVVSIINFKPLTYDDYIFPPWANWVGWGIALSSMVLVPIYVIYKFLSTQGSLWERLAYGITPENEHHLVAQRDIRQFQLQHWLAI
Sequence of Histamine H2 receptor (Cavia porcellus) (P47747 whole entry): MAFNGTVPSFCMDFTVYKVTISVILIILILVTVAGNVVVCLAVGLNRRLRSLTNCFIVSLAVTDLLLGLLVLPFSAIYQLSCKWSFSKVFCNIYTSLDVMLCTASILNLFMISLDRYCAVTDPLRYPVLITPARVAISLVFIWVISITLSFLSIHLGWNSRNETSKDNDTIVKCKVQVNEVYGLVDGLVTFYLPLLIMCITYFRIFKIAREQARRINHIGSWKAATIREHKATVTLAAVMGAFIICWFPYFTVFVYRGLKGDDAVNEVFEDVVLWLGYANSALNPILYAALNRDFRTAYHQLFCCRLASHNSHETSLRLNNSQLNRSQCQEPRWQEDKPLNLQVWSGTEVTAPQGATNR
Sequence of D(2) dopamine receptor (Homo sapiens) (P14416 whole entry): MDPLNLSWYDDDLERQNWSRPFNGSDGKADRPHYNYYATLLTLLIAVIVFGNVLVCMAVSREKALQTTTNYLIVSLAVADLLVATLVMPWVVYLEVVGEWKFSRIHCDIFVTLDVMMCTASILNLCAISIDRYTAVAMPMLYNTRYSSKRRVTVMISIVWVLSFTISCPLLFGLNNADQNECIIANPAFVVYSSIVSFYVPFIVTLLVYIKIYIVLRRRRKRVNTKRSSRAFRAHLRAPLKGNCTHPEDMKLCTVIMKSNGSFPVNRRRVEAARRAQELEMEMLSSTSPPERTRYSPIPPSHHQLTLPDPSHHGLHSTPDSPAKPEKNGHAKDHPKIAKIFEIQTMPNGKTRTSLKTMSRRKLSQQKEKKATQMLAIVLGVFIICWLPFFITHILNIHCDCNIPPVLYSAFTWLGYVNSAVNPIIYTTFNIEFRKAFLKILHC
Sequence of D(1A) dopamine receptor (Homo sapiens) (P21728 whole entry): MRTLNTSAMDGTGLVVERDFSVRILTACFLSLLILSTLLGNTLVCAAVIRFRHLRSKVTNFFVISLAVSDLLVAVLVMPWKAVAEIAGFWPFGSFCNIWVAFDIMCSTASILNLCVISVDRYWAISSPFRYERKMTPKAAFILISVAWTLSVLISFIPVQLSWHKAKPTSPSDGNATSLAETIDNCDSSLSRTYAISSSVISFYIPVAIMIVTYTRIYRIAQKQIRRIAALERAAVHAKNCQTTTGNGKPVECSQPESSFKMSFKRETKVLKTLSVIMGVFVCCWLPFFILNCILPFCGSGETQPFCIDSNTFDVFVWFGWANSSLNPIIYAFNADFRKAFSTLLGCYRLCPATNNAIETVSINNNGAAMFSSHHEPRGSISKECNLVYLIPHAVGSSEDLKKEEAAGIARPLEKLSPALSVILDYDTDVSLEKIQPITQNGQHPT
Sequence of Beta-1 adrenergic receptor (Homo sapiens) (P08588 whole entry, looked up): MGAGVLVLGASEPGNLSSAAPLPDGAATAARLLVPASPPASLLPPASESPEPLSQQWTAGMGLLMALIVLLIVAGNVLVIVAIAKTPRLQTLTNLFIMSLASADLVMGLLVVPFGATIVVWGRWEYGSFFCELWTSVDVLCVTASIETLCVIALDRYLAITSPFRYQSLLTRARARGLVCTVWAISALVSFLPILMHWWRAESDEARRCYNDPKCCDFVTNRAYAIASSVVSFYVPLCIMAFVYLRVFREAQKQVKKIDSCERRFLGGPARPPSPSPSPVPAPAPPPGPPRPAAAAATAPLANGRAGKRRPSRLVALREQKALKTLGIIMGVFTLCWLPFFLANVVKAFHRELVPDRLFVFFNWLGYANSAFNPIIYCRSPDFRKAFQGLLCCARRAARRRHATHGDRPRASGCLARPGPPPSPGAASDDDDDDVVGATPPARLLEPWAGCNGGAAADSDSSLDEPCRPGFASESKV
Sequence of 5-hydroxytryptamine receptor 1A (Homo sapiens) (P08908 whole entry): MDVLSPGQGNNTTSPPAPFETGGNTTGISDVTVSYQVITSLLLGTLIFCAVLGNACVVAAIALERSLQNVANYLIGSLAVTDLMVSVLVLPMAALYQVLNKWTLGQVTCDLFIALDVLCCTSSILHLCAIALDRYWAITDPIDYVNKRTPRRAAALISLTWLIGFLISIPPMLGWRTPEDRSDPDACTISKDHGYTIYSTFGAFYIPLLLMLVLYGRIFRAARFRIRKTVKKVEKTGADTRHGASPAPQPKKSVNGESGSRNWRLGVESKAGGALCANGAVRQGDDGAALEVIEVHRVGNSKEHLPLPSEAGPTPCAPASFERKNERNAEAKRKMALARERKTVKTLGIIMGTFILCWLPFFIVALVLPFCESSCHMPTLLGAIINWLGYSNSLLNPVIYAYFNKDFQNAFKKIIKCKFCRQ
Sequence of Glucocorticoid receptor (Homo sapiens) (P04150 whole entry): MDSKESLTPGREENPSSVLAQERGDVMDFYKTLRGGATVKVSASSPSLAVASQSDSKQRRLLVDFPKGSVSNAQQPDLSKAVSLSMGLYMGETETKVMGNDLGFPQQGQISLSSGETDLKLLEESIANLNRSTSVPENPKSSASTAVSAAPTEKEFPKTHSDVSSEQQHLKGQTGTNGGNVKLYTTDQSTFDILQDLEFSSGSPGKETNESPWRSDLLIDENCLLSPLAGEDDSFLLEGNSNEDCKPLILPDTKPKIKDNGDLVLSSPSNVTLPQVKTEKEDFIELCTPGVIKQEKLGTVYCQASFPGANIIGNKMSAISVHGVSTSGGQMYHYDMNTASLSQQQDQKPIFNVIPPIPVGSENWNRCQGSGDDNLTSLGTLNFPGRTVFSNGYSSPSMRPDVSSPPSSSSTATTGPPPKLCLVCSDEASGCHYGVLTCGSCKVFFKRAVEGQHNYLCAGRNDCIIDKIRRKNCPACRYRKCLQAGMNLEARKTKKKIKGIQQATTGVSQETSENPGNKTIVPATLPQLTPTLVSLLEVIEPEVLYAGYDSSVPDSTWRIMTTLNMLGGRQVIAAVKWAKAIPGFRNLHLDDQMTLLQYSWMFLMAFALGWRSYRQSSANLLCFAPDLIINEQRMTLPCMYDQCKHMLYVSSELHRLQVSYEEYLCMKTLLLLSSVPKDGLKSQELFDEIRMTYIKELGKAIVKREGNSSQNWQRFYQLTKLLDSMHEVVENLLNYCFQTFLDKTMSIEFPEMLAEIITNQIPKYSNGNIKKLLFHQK
Sequence of 5-hydroxytryptamine receptor 2B (Homo sapiens) (P41595 whole entry): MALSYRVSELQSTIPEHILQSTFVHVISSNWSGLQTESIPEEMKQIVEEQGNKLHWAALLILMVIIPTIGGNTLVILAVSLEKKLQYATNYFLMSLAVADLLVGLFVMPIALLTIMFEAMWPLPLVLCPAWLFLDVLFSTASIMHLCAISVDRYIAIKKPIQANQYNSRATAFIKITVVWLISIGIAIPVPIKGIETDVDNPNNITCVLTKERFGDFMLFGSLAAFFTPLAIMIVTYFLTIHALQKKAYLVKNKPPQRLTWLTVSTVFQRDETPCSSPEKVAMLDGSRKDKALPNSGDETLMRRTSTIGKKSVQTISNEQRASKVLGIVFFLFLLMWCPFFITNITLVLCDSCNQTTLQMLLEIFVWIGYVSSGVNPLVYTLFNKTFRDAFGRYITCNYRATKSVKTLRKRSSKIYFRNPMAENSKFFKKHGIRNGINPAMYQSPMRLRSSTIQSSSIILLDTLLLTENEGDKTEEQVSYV

**Q.** For `Cc1cc2cc(/N=C(/NC#N)N[C@H]3CCCCN(CC(=O)N4CCCC4)C3=O)ccc2o1`, which Activity (Rattus norvegicus [1]) is on record?
**A.** Dose-dependent effect

**Q.** And the Activity (Rattus norvegicus [2])?
**A.** Active

**Q.** And the Activity (Rattus norvegicus [3])?
**A.** Active

**Q.** What about the inhibition [4] of the same compound?
**A.** inactive

**Q.** And the inhibition [5]?
**A.** inactive

**Q.** What about the inhibition [6] of the same compound?
**A.** inactive

**Q.** What about the inhibition [7] of the same compound?
**A.** inactive

**Q.** What about the inhibition [8] of the same compound?
**A.** inactive

**Q.** And the inhibition (Rattus norvegicus [9])?
**A.** inactive

**Q.** And the inhibition [10]?
**A.** inactive

**Q.** What about the inhibition [11] of the same compound?
**A.** inactive

**Q.** And the inhibition [12]?
**A.** inactive

**Q.** And the inhibition (Rattus norvegicus [13])?
**A.** inactive

**Q.** And the inhibition (Rattus norvegicus [14])?
**A.** inactive

**Q.** What about the inhibition [15] of the same compound?
**A.** inactive

**Q.** And the inhibition [16]?
**A.** inactive

**Q.** And the inhibition [17]?
**A.** inactive

**Q.** What about the inhibition [18] of the same compound?
**A.** inactive

**Q.** And the inhibition (Rattus norvegicus [19])?
**A.** inactive

**Q.** What about the inhibition (Rattus norvegicus [20]) of the same compound?
**A.** inactive

**Q.** What about the inhibition (Mus musculus) of the same compound?
**A.** inactive

**Q.** What about the inhibition (Rattus norvegicus [21]) of the same compound?
**A.** inactive

**Q.** And the inhibition [22]?
**A.** inactive

**Q.** What about the inhibition [23] of the same compound?
**A.** inactive

**Q.** And the inhibition [24]?
**A.** inactive

**Q.** And the inhibition [25]?
**A.** inactive

**Q.** What about the inhibition [26] of the same compound?
**A.** inactive

**Q.** And the inhibition [27]?
**A.** inactive

**Q.** What about the inhibition (Rattus norvegicus [28]) of the same compound?
**A.** inactive

**Q.** What about the inhibition (Rattus norvegicus [29]) of the same compound?
**A.** inactive

**Q.** What about the inhibition [30] of the same compound?
**A.** inactive

**Q.** And the inhibition [31]?
**A.** inactive

**Q.** And the inhibition (Rattus norvegicus [32])?
**A.** inactive

**Q.** And the inhibition (Rattus norvegicus [33])?
**A.** inactive

**Q.** And the Ki [34]?
**A.** > 10 µM

**Q.** What about the Ki [35] of the same compound?
**A.** > 16 µM

**Q.** And the inhibition [36]?
**A.** inactive

**Q.** What about the EC (Plasma) of the same compound?
**A.** 30 µM

**Q.** And the IC50 (cells)?
**A.** > 200 µM

**Q.** And the ED50 (Rattus norvegicus [37])?
**A.** 25 mg/kg

**Q.** And the ED50 (Rattus norvegicus [38])?
**A.** 6 mg/kg
